Data set [1] concerns the target T1, hA1 receptors expressed in CHO cells (Homo sapiens, UniProt P30542).
T1 sequence (P30542 1-326): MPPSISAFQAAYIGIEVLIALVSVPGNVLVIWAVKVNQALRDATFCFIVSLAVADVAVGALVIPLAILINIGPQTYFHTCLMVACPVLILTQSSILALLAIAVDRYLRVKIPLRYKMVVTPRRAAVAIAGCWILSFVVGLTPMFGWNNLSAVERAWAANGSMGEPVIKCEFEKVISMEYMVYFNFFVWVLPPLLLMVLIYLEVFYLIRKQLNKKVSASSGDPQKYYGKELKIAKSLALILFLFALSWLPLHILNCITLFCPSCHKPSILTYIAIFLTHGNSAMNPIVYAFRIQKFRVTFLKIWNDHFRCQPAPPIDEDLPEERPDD
In words: [3H]CHA binding hA1 CHO cells.
Protocol: (§2) The cells are grown adherently and maintained in Dulbecco's Modified Eagles Medium with nutrient mixture F12 (DMEM/F12) without nucleosides, containing 10% fetal calf serum, penicillin (100 U/mL), streptomycin (100 μg/mL), L-glutamine (2 mM) and Geneticin (G418, 0.2 mg/mL) at 37° C. in 5% CO2/95% air. […] For membrane preparation the culture medium is removed and the cells are washed with PBS and scraped off T75 flasks in ice-cold hypotonic buffer (5 mM Tris HCl, 2 mM EDTA, pH 7.4). The cell suspension is homogenized and centrifuged for 30 min at 100,000×g. The membrane pellet is re-suspended in 50 mM Tris HCl buffer pH 7.4 and incubated with 2 UI/mL of adenosine deaminase for 30 min at 37° C.
(§3) Binding of 1 nM [^3H]—CHA to hA1CHO cells (50 μg of protein/assay) is performed using 50 mM Tris HCl buffer pH 7.4 and at least 6-8 different concentrations of agonists studied for an incubation time of 150 min at 25° C. […] Non-specific binding is determined in the presence of 10 μM of CHA and is about 20% of the total binding. […] Filter bound radioactivity is measured by scintillation spectrometry after addition of 5 mL of Aquassure.
(§4) All experimental data are expressed as the mean±standard error of the mean (s.e. mean) of three or four independent experiments performed in duplicate.

In data set [2] the target is T2, hA2B receptors expressed in CHO cells (Homo sapiens, UniProt P29275).
T2 construct: expressed in transfected cells; host or cells: CHO cells
T2 sequence (P29275 1-332): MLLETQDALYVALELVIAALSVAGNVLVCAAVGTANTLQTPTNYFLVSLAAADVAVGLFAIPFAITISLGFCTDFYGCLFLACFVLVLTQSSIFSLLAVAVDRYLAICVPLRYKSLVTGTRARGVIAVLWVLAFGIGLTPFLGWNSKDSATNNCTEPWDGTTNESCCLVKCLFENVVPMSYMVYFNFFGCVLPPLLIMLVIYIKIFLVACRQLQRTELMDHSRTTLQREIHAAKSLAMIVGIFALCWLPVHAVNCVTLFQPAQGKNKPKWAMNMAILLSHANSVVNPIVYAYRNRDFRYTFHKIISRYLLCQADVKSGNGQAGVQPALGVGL
In words: cAMP assay hA2B CHO cells. The settings on record: for Selectivity hA1/hA2B: ratio hA1 Ki / hA2B EC50; for Selectivity hA2A/hA2B: ratio hA2A Ki / hA2B EC50; for Selectivity hA3/hA2B: ratio hA3 IC50 / hA2B EC50; for EC50: stimulation of cAMP levels, hA2B CHO cells, mean ± s.e. mean. In kind it is cell-based. The procedure:
The effects of the tested compounds may be evaluated in functional assays measuring the stimulatory capability of the ligands to increase cAMP levels in hA2B receptors expressed in CHO cells. This may done as described by Pastorin et al. in “Pyrazolo[4,3-e]-1,2,4-triazolo[1,5-c]pyrimidine derivatives as adenosine receptor antagonists.
(§1) For cell preparation CHO cells transfected with human A2B or A3 receptors are washed with phosphate-buffered saline and diluted trypsin, and centrifuged for 10 min at 200 g. […] After the preincubation time at 37° C., the examined ligands (1 nM-10 μM) are added to the mixture and incubated for a further 5 min. The reaction is terminated by the addition of cold 6% trichloroacetic acid (TCA). The TCA suspension is centrifuged at 2000 g for 10 min at 4° C. and the supernatant is extracted four times with water saturated diethyl ether. […] Samples of cyclic AMP standard (0-10 pmoles) are added to each test tube containing the incubation buffer (trizma base 0.1 mM, aminophylline 8.0 mM, 2-mercaptoethanol 6.0 mM, pH 7.4) and [^3H]cyclic AMP in total volume of 0.5 mL. The binding protein previously incubated at 4° C. for 150 min, and after the addition of charcoal is centrifuged at 2000 g for 10 min. The clear supernatant is counted in a Beckman scintillation counter.
(In general: Changes in cAMP serve as a functional read-out for many G protein-coupled receptors.)

Data set [3] has as its target T3, hA2A receptors expressed in CHO cells (Homo sapiens, UniProt P29274).
T3 construct: expressed in transfected cells; host or cells: CHO cells (stably transfected, per Klotz et al. 1998); membrane preparation
In words: [3H]CGS21680 binding hA2A CHO cells. The settings on record: [3H]-CGS 21680, hA2A CHO cell membranes, 180 min at 25° C.; mean ± s.e. mean.
Protocol: as §2, §3, §4

The target in data set [4] is T4, human A3 receptors in CHO cells (Homo sapiens, UniProt P0DMS8).
T4 construct: expressed in transfected cells; host or cells: CHO cells
T4 sequence (P0DMS8 1-318): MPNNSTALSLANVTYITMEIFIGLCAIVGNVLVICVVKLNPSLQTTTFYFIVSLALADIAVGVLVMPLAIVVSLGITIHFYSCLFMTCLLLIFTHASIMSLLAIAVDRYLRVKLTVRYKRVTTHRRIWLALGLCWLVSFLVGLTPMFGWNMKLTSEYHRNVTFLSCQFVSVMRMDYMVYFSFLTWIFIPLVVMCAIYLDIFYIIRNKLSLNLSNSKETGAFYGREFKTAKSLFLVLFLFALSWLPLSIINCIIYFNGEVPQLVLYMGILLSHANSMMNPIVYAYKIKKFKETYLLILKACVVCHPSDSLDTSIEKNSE
In words: cAMP assay hA3 CHO cells. In kind it is cell-based. Particulars: cyclic AMP assay, mean ± s.e. mean. The method, then: as §1

Setting [5] is: read-out: [3H]CHA binding hA1 CHO cells Ki, 1 nM [3H]-CHA, hA1 CHO cell membranes, 150 min at 25° C., mean ± s.e. mean.

Results on seven molecules are retold here after patent US7691825B2, “Adenosine A2B receptor agonists” (King Pharmaceuticals Research and Development, Inc., priority 2006, dated 2010).

Read-outs that look alike come from different tables or passages of the source.

T3 sequence (P29274 whole entry): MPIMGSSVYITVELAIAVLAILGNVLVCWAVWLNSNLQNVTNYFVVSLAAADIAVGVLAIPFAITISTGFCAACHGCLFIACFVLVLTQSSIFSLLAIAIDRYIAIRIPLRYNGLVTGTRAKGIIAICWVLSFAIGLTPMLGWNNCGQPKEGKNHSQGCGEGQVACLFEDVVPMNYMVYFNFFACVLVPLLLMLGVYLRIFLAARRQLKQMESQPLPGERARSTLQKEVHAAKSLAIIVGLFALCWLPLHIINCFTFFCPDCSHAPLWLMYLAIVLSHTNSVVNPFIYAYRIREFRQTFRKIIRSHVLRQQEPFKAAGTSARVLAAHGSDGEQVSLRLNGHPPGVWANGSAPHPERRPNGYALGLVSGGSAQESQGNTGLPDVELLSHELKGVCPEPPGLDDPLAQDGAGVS

As for `CCNC(=O)[C@H]1O[C@@H](n2cnc3c(NNC(=O)Cc4cccs4)nc(Cl)nc32)[C@H](O)[C@@H]1O` [Compound 20b, (2S, 3S, 4R, 5R)-5-{2-Chloro-6-[N′-(2-thiophene-2-yl-acetyl)-hydrazino]-9H-purin-9-yl}-3,4-dihydroxy-tetrahydrofuran-2-carboxylic acid ethylamide], the melting point (as a rule, the temperature, or range, at which the solid turns liquid) is 153 to 154 °C. Besides, in data set [1] (setting [5]), the Ki (commonly the dissociation constant of the complex between target and ligand, obtained from inhibition or displacement) was determined as 62 ± 4 nM. For the same molecule, in data set [2], the “Selectivity hA1/hA2B” value is on record as 0.10; the “Selectivity hA2A/hA2B” value is reported as 1.05; the “Selectivity hA3/hA2B” value turned out to be 0.11; the EC50 (in general, the concentration at which the effect is half-maximal) was 603 ± 31 nM. The molecule further gave a Ki in data set [3] of 633 ± 60 nM. Further, it took 67 ± 4 nM to reach half-maximal inhibition in data set [4] (IC50).
In turn, `CCNC(=O)[C@H]1O[C@@H](n2cnc3c(NNC(=O)c4ccsc4)nc(Cl)nc32)[C@H](O)[C@@H]1O` [Compound 21b, (2S, 3S, 4R, 5R)-5-{2-Chloro-6-[N′-(thiophene-3-carbonyl)-hydrazino]-9H-purin-9-yl}-3,4-dihydroxy-tetrahydrofuran-2-carboxylic acid ethylamide] yielded a melting point of 249 to 250 °C. Moreover, the inhibition constant Ki in data set [1] (setting [5]) is 933 ± 76 nM. Further, in data set [2], the “Selectivity hA1/hA2B” value is reported as 2.07, the “Selectivity hA2A/hA2B” value is greater than 2.22, the “Selectivity hA3/hA2B” value is greater than 2.22 and the half-maximal effective concentration (EC50) worked out at 450 ± 29 nM. The Ki in data set [3] was greater than 1000 nM. Besides, in data set [4], the 50% inhibitory concentration (IC50) (in general, the point on the concentration scale where inhibition reaches its midpoint) is greater than 1000 nM.
In turn, `CCNC(=O)[C@H]1O[C@@H](n2cnc3c(NNC(=O)c4cccs4)nc(Cl)nc32)[C@H](O)[C@@H]1O` [Compound 22b, (2S, 3S, 4R, 5R)-5-{2-Chloro-6-[N′-(thiophene-2-carbonyl)-hydrazino]-9H-purin-9-yl}3,4-dihydroxy-tetrahydrofuran-2-carboxylic acid ethylamide] showed a melting point of 189 to 190 °C. In data set [1] (setting [5]), the inhibition constant (Ki) turned out to be 737 ± 76 nM. In addition, in data set [2], the “Selectivity hA1/hA2B” value is 3.68, the “Selectivity hA2A/hA2B” value is given as greater than 5.00, the “Selectivity hA3/hA2B” value is greater than 5.00 and the EC50 is 200 ± 20 nM. The inhibition constant (Ki) in data set [3] is greater than 1000 nM. Also, the IC50 in data set [4] is greater than 1000 nM.
`CCNC(=O)[C@H]1O[C@@H](n2cnc3c(NNC(=O)c4sccc4C)nc(Cl)nc32)[C@H](O)[C@@H]1O` [Compound 23b] showed a melting point of 160 to 161 °C. In addition, the inhibitory constant (Ki) in data set [1] was greater than 1000 nM. In addition, in data set [2], the “Selectivity hA1/hA2B” value was greater than 2.94, the “Selectivity hA2A/hA2B” value is given as greater than 2.94, the “Selectivity hA3/hA2B” value is greater than 2.94 and the 50% effective concentration (EC50) worked out at 340 ± 35 nM. In data set [3], this molecule registered an inhibition constant Ki greater than 1000 nM. The IC50 in data set [4] is greater than 1000 nM.
Take `CCNC(=O)[C@H]1O[C@@H](n2cnc3c(NNC(=O)c4ccc[nH]4)nc(Cl)nc32)[C@H](O)[C@@H]1O` [Compound 24b, (2S, 3S, 4R, 5R)-5-{2-Chloro-6-[N′-(1H-pyrrole-2-carbonyl)-hydrazino]-9H-purin-9-yl}-3,4-dihydroxy-tetrahydrofuran-2-carboxylic acid ethylamide]: the melting point is 230 to 231 °C. Further, in data set [1] (setting [5]), the Ki is 610 ± 32 nM. Besides, in data set [2], the “Selectivity hA1/hA2B” value was found to be 1.70; the “Selectivity hA2A/hA2B” value is greater than 2.78; the “Selectivity hA3/hA2B” value was greater than 2.78; the midpoint of the response, the EC50, lay at 359 ± 36 nM. This molecule came in with a Ki in data set [3] greater than 1000 nM. The molecule further yielded an IC50 in data set [4] greater than 1000 nM.
`CCNC(=O)[C@H]1O[C@@H](n2cnc3c(NNC(=O)c4cc(C)on4)nc(Cl)nc32)[C@H](O)[C@@H]1O` [Compound 25b, (2S, 3S, 4R, 5R)-5-{2-Chloro-6-[N′-(5-methyl-isoxazole-3-carbonyl)-hydrazino]-9H-purin-9-yl}-3,4-dihydroxy-tetrahydrofuran-2-carboxylic acid ethylamide] gave a melting point of 182 to 183 °C. The Ki in data set [1] was greater than 1000 nM. In addition, the EC50 in data set [2] is greater than 1000 nM. In data set [3], the inhibition constant Ki is greater than 1000 nM. This molecule also displayed a concentration for half-maximal inhibition (IC50) in data set [4] greater than 1000 nM.
In turn, `CCNC(=O)[C@H]1O[C@@H](n2cnc3c(NNC(=O)c4cc(-c5ccccc5)on4)nc(Cl)nc32)[C@H](O)[C@@H]1O` [Compound 26b, (2S, 3S, 4R, 5R)-5-{2-Chloro-6-[N′-(5-phenyl-isoxazole-3-carbonyl)-hydrazino]-9H-purin-9-yl}-3,4-dihydroxy-tetrahydrofuran-2-carboxylic acid ethylamide] returned a melting point of 169 to 170 °C. The molecule further showed a Ki in data set [1] greater than 1000 nM. In addition, the EC50 in data set [2] was greater than 1000 nM. In data set [3], this molecule returned a Ki greater than 1000 nM. In addition, in data set [4], the IC50 is greater than 1000 nM.
